The text below walks through data of patent publication US7825256B2, “Inducible nitric oxide synthase dimerization inhibitors” (Kalypsys, Inc., priority 2004, dated 2010).

Structures can show the parent of a compound that is named as a salt. Some results are limits rather than exact numbers.

The target of the assay is T1, hiNOS (Homo sapiens, UniProt P35228).
T1 construct: expressed in transfected cells; host or cells: HEK293
Nature of the assay: DAN assay, hiNOS expressed in transiently transfected HEK293 cells. Type of assay: cell-based. The settings on record: HEK293 cells transiently transfected with hiNOS. In a few lines:
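Human iNOS, nNOS or eNOS transiently expressed in HEK293 cells, with nNOS and eNOS needing added cofactors for activity. NO production is read as nitrite by fluorometry: 2,3-diaminonaphthalene forms fluorescent […], detecting 10 nM to 10 μM nitrite.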
As usually defined, the EC50 is the concentration at which the effect is half-maximal. The low end stands for a more potent agent, the high end for a less potent agent. Take `CN(CCCNCc1ccc2c(c1)OCO2)c1nc(-n2cnc(I)c2)ns1` [Example 81, N′-Benzo[1,3]dioxol-5-ylmethyl-N-[3-(4-iodo-imidazol-1-yl)-[1,2,4]thiadiazol-5-yl]-N-methyl-propane-1,3-diamine]: the half-maximal effective concentration (EC50) is above 50000 nM.
Next, `Cc1cc(C2CCCN2CCNCc2ccc3c(c2)OCCO3)nc(-n2ccnc2)n1` (stereo not drawn) [Example 92, (2,3-Dihydro-benzo[1,4]dioxin-6-ylmethyl)-{2-[2-(2-imidazol-1-yl-6-methyl-pyrimidin-4-yl)-pyrrolidin-1-yl]-ethyl}-amine]: below 1000 nM; `Cc1cc(C2C(C(=O)NCCc3ccc4c(c3)OCO4)CCN2C)nc(-n2ccnc2)n1` (stereo not drawn) [Example 125, 2-(2-Imidazol-1-yl-6-methyl-pyrimidin-4-yl)-1-methyl-pyrrolidine-3-carboxylic acid (2-benzo[1,3]dioxol-5-yl-ethyl)-amide]: below 1000 nM; `CCOC(=O)c1csc(C2CCN(CCNCc3ccc4c(c3)OCO4)C2c2cc(C)nc(-n3ccnc3)n2)n1` (stereo not drawn) [Example 141, 2-[1-{2-[(Benzo[1,3]dioxol-5-ylmethyl)-amino]-ethyl}-2-(2-imidazol-1-yl-6-methyl-pyrimidin-4-yl)-pyrrolidin-3-yl]-thiazole-4-carboxylic acid ethyl ester]: below 1000 nM.
The compound `Cc1cc(CNC(=O)C2CCCN2Cc2ccc(OCCO)cc2)nc(-n2ccnc2)n1` (stereo not drawn) [Example 117, 1-[4-(2-Hydroxy-ethoxy)-benzyl]-pyrrolidine-2-carboxylic acid (2-imidazol-1-yl-6-methyl-pyrimidin-4-ylmethyl)-amide] came in with an EC50 above 50000 nM.
Next, `c1cncc(CN(CCCNCc2ccc3c(c2)OCO3)c2nc(-n3ccnc3)ns2)c1` [Example 102, N′-Benzo[1,3]dioxol-5-ylmethyl-N-(3-imidazol-1-yl-[1,2,4]thiadiazol-5-yl)-N-pyridin-3-ylmethyl-propane-1,3-diamine]: below 1000 nM; `CN(CCCNCc1ccc(Cl)cc1)c1nc(-n2ccnc2)ns1` [Example 7, N′-(4-Chloro-benzyl)-N-(3-imidazol-1-yl-[1,2,4]thiadiazol-5-yl)-N-methyl-propane-1,3-diamine]: below 50000 nM.
Next, `Cc1cc(C(C)(C)/C=C/C(=O)NCc2ccc3c(c2)OCO3)nc(-n2ccnc2)n1` [Example 74, (E)-4-(2-(1H-Imidazol-1-yl)-6-methylpyrimidin-4-yl)-N-(benzo[d][1,3]dioxol-5-ylmethyl)-4-methylpent-2-enamide]: below 50000 nM.
Next, `COc1ccc(CN2CCCC2C(=O)NCc2cc(C)nc(-n3ccnc3)n2)cc1O` (stereo not drawn) [Example 114, 1-(3-Hydroxy-4-methoxy-benzyl)-pyrrolidine-2-carboxylic acid (2-imidazol-1-yl-6-methyl-pyrimidin-4-ylmethyl)-amide]: above 50000 nM; `CN(CCCNCc1c(Cl)cccc1Cl)c1nc(-n2ccnc2)ns1` [Example 10, N′-(2,6-Dichloro-benzyl)-N-(3-imidazol-1-yl-[1,2,4]thiadiazol-5-yl)-N-methyl-propane-1,3-diamine]: above 50000 nM.
The compound `Cc1cc(CN(CC(N)=O)C(=O)NCCc2ccc3c(c2)OCO3)nc(-n2ccnc2)n1` [Example 70, (2-[3-(2-Benzo[1,3]dioxol-5-yl-ethyl)-1-(2-imidazol-1-yl-6-methyl-pyrimidin-4-ylmethyl)-ureido]-acetamide)] showed a concentration for a half-maximal effect (EC50) below 1000 nM.
Next, `CN(CCN1CCCC1c1nc(-n2ccnc2)ns1)Cc1ccc2c(c1)OCO2` (stereo not drawn) [Example 89, Benzo[1,3]dioxol-5-ylmethyl-{2-[2-(3-imidazol-1-yl-[1,2,4]thiadiazol-5-yl)-pyrrolidin-1-yl]-ethyl}-methyl-amine]: below 1000 nM; `CN(CCCN(Cc1ccc(O)cc1)Cc1ccc(O)cc1)c1nc(-n2ccnc2)ns1` [Example 36, N-(3-Imidazol-1-yl-[1,2,4]thiadiazol-5-yl)-N′,N′-bis-(4-hydroxy-benzyl)-N-methyl-propane-1,3-diamine]: below 1000 nM; `CN(CCCNCc1ccc2c(c1)OCO2)c1nc(-n2cncn2)ns1` [Example 145, N′-Benzo[1,3]dioxol-5-ylmethyl-N-methyl-N-(3-[1,2,4]triazol-1-yl-[1,2,4]thiadiazol-5-yl)-propane-1,3-diamine]: above 50000 nM.
Next, `Cc1cc(C(C)NCCN(C)Cc2ccc3c(c2)OCO3)nc(-n2ccnc2)n1` (single isomer, unassigned) [Example 130, N-Benzo[1,3]dioxol-5-ylmethyl-N′-[1-(2-imidazol-1-yl-6-methyl-pyrimidin-4-yl)-ethyl]-N-methyl-ethane-1,2-diamine]: below 1000 nM.
The compound `Cc1cc(C2CCC(=O)N2CCNCc2ccc3c(c2)OCCO3)nc(-n2ccnc2)n1` (stereo not drawn) [Example 139, 1-{2-[(2,3-Dihydro-benzo[1,4]dioxin-6-ylmethyl)-amino]-ethyl}-5-(2-imidazol-1-yl-6-methyl-pyrimidin-4-yl)-pyrrolidin-2-one hydrochloride] came in with an EC50 below 1000 nM.
Next, `c1cn(-c2nsc(N(CCCNCc3ccc4c(c3)OCO4)Cc3ccc4occc4c3)n2)cn1` [Example 101, N′-Benzo[1,3]dioxol-5-ylmethyl-N-benzofuran-5-ylmethyl-N-(3-imidazol-1-yl-[1,2,4]thiadiazol-5-yl)-propane-1,3-diamine]: below 1000 nM; `Cc1cc(C(C)(C)CNC(=O)NCc2ccc3c(c2)OCO3)nc(-n2ccnc2)n1` [Example 144, 1-Benzo[1,3]dioxol-5-ylmethyl-3-[2-(2-imidazol-1-yl-6-methyl-pyrimidin-4-yl)-2-methyl-propyl]-urea]: below 1000 nM.
The compound `O=C(NCCc1ccc2c(c1)OCO2)[C@@H]1C[C@@H](O)CN1c1nc(-n2ccnc2)ns1` [Example 27, (2S,4R)-4-Hydroxy-1-(3-imidazol-1-yl-[1,2,4]thiadiazol-5-yl)-pyrrolidine-2-carboxylic acid (2-benzo[1,3]dioxol-5-yl-ethyl)amide] yielded a concentration giving a half-maximal response (EC50) below 1000 nM.
Next, `COc1ccc(CNCCCN(C)c2nc(-n3ccnc3)ns2)cc1` [Example 8, N-(3-Imidazol-1-yl-[1,2,4]thiadiazol-5-yl)-N′-(4-methoxy-benzyl)-N-methyl-propane-1,3-diamine]: below 1000 nM; `COc1ccc(CNCCCN(C)c2nc(-n3ccnc3)ns2)cc1OC` [Example 22, N′-(3,4-Dimethoxy-benzyl)-N-(3-imidazol-1-yl-[1,2,4]thiadiazol-5-yl)-N-methyl-propane-1,3-diamine]: above 50000 nM; `CCOC(=O)C(CC(=O)NCCc1ccc2c(c1)OCO2)c1nc(-n2ccnc2)ns1` (stereo not drawn) [Example 67, N-(2-Benzo[1,3]dioxol-5-yl-ethyl)-2-(3-imidazol-1-yl-[2,4]thiadiazol-5-yl)-succinamic acid ethyl ester]: below 1000 nM.
Consider `COc1ccc(CNCCNC(C)c2cc(C)nc(-n3ccnc3)n2)cc1F` (stereo not drawn) [Example 98, N-(3-Fluoro-4-methoxy-benzyl)-N′-[1-(2-imidazol-1-yl-6-methyl-pyrimidin-4-yl)-ethyl]-ethane-1,2-diamine], for which the EC50 is below 1000 nM.
Next, `Cc1cc(C2CCCN2CCNCc2ccc3c(c2)OCO3)nc(-n2ccnc2)n1` (stereo not drawn) [Example 39, Benzo[1,3]dioxol-5-ylmethyl-{2-[2-(2-imidazol-1-yl-6-methyl-pyrimidin-4-yl)-pyrrolidin-1-yl]-ethyl}-amine]: below 1000 nM; `CN(CCNCCc1ccc2c(c1)OCCO2)c1nc(-n2ccnc2)ns1` [Example 83, N′-[2-(2,3-Dihydro-benzo[1,4]dioxin-6-yl)-ethyl]-N-(3-imidazol-1-yl-[1,2,4]thiadiazol-5-yl)-N-methyl-ethane-1,2-diamine]: below 1000 nM.
`CN(CCCNCCc1ccc2c(c1)OCO2)c1nc(-n2ccnc2)ns1` [Example 87, N′-(2-Benzo[1,3]dioxol-5-ethyl)-N-(3-imidazol-1-yl-[1,2,4]thiadiazol-5-yl)-N-methyl-propane-1,3-diamine] gave an EC50 below 1000 nM.
Next, `Cc1cc(C2C(c3nccs3)CCN2CCNCc2ccc3c(c2)OCO3)nc(-n2ccnc2)n1` (stereo not drawn) [Example 140, Benzo[1,3]dioxol-5-ylmethyl-{2-[2-(2-imidazol-1-yl-6-methyl-pyrimidin-4-yl)-3-thiazol-2-yl-pyrrolidin-1-yl]-ethyl}-amine]: below 1000 nM.
Take `CNC(=O)CN(CCCNCc1ccc2c(c1)OCO2)c1nc(-n2ccnc2)ns1` [Example 56, 2-[{3-[(Benzo[1,3]dioxol-5-ylmethyl)-amino]-propyl}-(3-imidazol-1-yl-[1,2,4]thiadiazol-5-yl)-amino]-N-methyl-acetamide]: the EC50 is below 1000 nM.
`CC(=O)Oc1ccc(CN(CCCN(C)c2nc(-n3ccnc3)ns2)Cc2ccc(OC(C)=O)cc2)cc1` [Example 35, Acetic acid 4-[((4-acetoxy-benzyl)-{3-[(3-imidazol-1-yl-[1,2,4]thiadiazol-5-yl)-methyl-amino]-propyl}-amino)-methyl]-phenyl ester] came in with an EC50 below 1000 nM.
Next, `CN(CC(=O)NCCc1ccc2c(c1)OCO2)c1nc(-n2ccnc2)ns1` [Example 30, N-(2-Benzo[1,3]dioxol-5-yl-ethyl)-2-[(3-imidazol-1-yl-[1,2,4]thiadiamol-5-yl)-methyl-amino]-acetamide]: below 1000 nM; `CN(CCCCNCc1ccc2c(c1)OCO2)c1nc(-n2ccnc2)ns1` [Example 48, N′-Benzo[1,3]dioxol-5-ylmethyl-N-(3-imidazol-1-yl-[1,2,4]thiadiazol-5-yl)-N-methyl-butane-1,4-diamine]: below 1000 nM.
Next, `NC(=O)CN(CCCNCc1ccc2c(c1)OCO2)c1nc(-n2ccnc2)ns1` [Example 54, 2-[{3-[(Benzo[1,3]dioxol-5-ylmethyl)-amino]-propyl}-(3-imidazol-1-yl-[1,2,4]thiadiazol-5-yl)-amino]-acetamide]: below 1000 nM; `CN(C)c1ccc(CN(CCCNCc2ccc3c(c2)OCO3)c2nc(-n3ccnc3)ns2)cc1` [Example 105, N-Benzo[1,3]dioxol-5-ylmethyl-N′-(4-dimethylamino-benzyl)-N′-(3-imidazol-1-yl-[1,2,4]thiadiazol-5-yl)-propane-1,3-diamine]: below 1000 nM.
